According to US10750743B2, “Pyridazinone herbicides” (E.I. DU PONT DE NEMOURS AND COMPANY, priority 2015, dated 2020):

Experiments:
[1] = test system: foxtail, giant (giant foxtail, Setaria faberii); assay: Test A preemergence, directed soil spray, visual injury rating; type: in vivo; settings: Setaria faberi, pre-emergence, 240 h, 0 is no effect, 100 is complete control, read-out: Plant response rating (0 to 100 scale), Foxtail, Giant; for pest or weed control at 125 g/ha: 125 g ai/ha; for pest or weed control at 500 g/ha: 500 g ai/ha; for pest or weed control at 31 g/ha: 31 g ai/ha
Outline: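 Injury ratings, 0 (no effect) to 100 (complete control), were scored visually versus untreated plants roughly 10 d after treatment under greenhouse conditions. Treatments used surfactant-containing solvent formulations, sprayed onto soil preemergence or onto one- to two-leaf seedlings (2-10 cm) postemergence, grown in a loam-sand mix.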

| melting point | SMILES | pest or weed control at 125 g/ha [1] | pest or weed control at 500 g/ha [1] | pest or weed control at 31 g/ha [1] |
| --- | --- | --- | --- | --- |
| 194 to 199 °C | Cc1cc2ccc(C)c(-c3c(O)c(C)nn(C)c3=O)c2o1 [Compound 10, 4-(2,6-dimethyl-7-benzofuranyl)-5-hydroxy-2,6-dimethyl-3(2H)-pyridazinone] | 80% | 100% |  |
| 93 to 96 °C | CC(=O)Oc1c(C)nn(C)c(=O)c1-c1c(C)ccc2cc(C)oc12 [Compound 11, 5-(acetyloxy)-4-(2,6-dimethyl-7-benzofuranyl)-2,6-dimethyl-3(2H)-pyridazinone] | 50% | 100% |  |
|  | Cc1cc2cccc(-c3c(O)c(C)nn(C)c3=O)c2o1 [Compound 12, 5-hydroxy-2,6-dimethyl-4-(2-methyl-7-benzofuranyl)-3(2H)-pyridazinone] | 10% | 60% |  |
|  | CC(=O)Oc1c(C)nn(C)c(=O)c1-c1cccc2cc(C)oc12 [Compound 13, 5-(acetyloxy)-2,6-dimethyl-4-(2-methyl-7-benzofuranyl)-3 (2H)-pyridazinone] | 10% | 60% |  |
| 115 to 118 °C | Cc1nn(C)c(=O)c(-c2cccc3snc(C)c23)c1O [Compound 25, 5-hydroxy-2,6-dimethyl-4-(3-methyl-1,2-benzisothiazol-4-yl)-3 (2H)-pyridazinone] | 30% | 80% |  |
|  | Cc1ccc2sccc2c1-c1c(O)c(C)nn(C)c1=O [Compound 29, 5-hydroxy-2,6-dimethyl-4-(5-methylbenzo[b]thien-4-yl)-3(2H)-pyridazinone] | 10% | 90% |  |
| 103 to 107 °C | CCOC(=O)Oc1c(C)nn(C)c(=O)c1-c1c(C)ccc2sccc12 [Compound 30, 1,6-dihydro-1,3-dimethyl-5-(5-methylbenzo[b]thien-4-yl)-6-oxo-4-pyridazinyl ethyl carbonate] | 0% | 80% |  |
|  | Cn1nc(Cl)c(O)c(-c2nccc3ccccc23)c1=O [Compound 67, 6-chloro-5-hydroxy-4-(1-isoquinolinyl)-2-methyl-3(2H)-pyridazinone] | 0% |  | 0% |
|  | Cc1nn(C)c(=O)c(-c2ccc(F)c3ccoc23)c1O [Compound 68, 4-(4-fluoro-7-benzofuranyl)-5-hydroxy-2,6-dimethyl-3(2H)-pyridazinone] | 20% |  | 0% |
|  | COc1c(C)nn(C)c(=O)c1-c1ccc(F)c2ccoc12 [Compound 69, 4-(4-fluoro-7-benzofuranyl)-5-methoxy-2,6-dimethyl-3(2H)-pyridazinone] | 0% |  | 0% |
